From patent publication US20240209028A1, “CNP COMPOUNDS” (priority 2022, published 2024) come the findings set out here.

Converted amounts (≈) assume the structure as drawn. Where two headings read alike, the source gives them in different places. Starred links: 1 amine or outer side, 2 acyl side, 3 side chain; linkers in the order of their positions; H or OH if unused. Positions of bridges follow the written chain, without caps; N, C: chain ends. Residues, ends and D or L forms follow the SMILES beside them. *: point of attachment. C18 diacid = O=C(O)CCCCCCCCCCCCCCCCC(=O)*; γGlu = O=C(O)[C@H](CCC(=O)[*:2])N[*:1]; X1 = O=C(CCCCCCCCCCCCCCCCc1nnn[nH]1)*; AEEA = NCCOCCOCC(=O)O

Series [1] can be described thus: Solubility of CNP compounds at pH 4.0 and pH 6.5. The class given is physicochemical. As for the experimental part:
In order to assess the suitability of CNP compounds for a soluble liquid formulation, the solubility of CNP compounds in pharmaceutically relevant buffers were measured. Solubility at two different pH-levels (pH 4.0 and pH 6.5) was examined as pH is expected to affect solubility.
Preparation of pH 4.0 samples: The pH 4.0 samples of the CNP compounds were prepared by mixing freeze dried peptide with a pH 4.0 5 mM sodium acetate, 250 mM glycerol buffer at room temperature to a nominal concentration of at least 4000-5000 nmol/mL. The pH of the samples was measured and adjusted to pH 4.0 and the samples were allowed to equilibrate at room temperature until next day if not fully dissolved.
Preparation of pH 6.5 samples: The pH 6.5 samples of the CNP compounds were prepared by dissolving the freeze dried peptide in water. While stirring, a part of the peptide solution was transferred to a buffer consisting of 41 mM sodium phosphate and 118 mg/mL glycerol, pH 7.5-8.0, followed by addition of diluted sodium hydroxide followed by another part of the peptide solution and further addition of diluted sodium hydroxide. This procedure was repeated until all of the peptide solution had been added where a nominal concentration of at least 4000-5000 nmol/mL had been reached and the buffer composition was 8 mM sodium phosphate, 23 mg/mL glycerol. The pH of the samples were measured and adjusted to pH 6.5 and the samples were allowed to equilibrate at room temperature until next day if not fully dissolved.
Procedure: Samples at pH 4.0 were prepared as described above and the compound concentration in the supernatant was determined using CAD (Method F, CAD02).
Samples at pH 6.5 were prepared as described above and peptide concentration in the supernatant was determined by CAD (Method F, CAD02).

Series [2] is described as follows: Thioflavin T (ThT) assay: lagtime and peptide recovery. Particulars: assay terminated after 45 hours; for LagTime (h) at pH 6.5: ThT assay, pH 6.5, 37° C. The format is physicochemical. From the text: The ThT assay was used to evaluate physical stability of the CNP compounds and their suitability for liquid formulation. Low physical stability of peptides may lead to amyloid fibril formation, which is observed as well-ordered, thread-like macromolecular structures in the sample eventually resulting in gel formation. This has traditionally been tested by visual inspection of the sample. However, that kind of measurement is very subjective and depending on the observer. Therefore, the application of a small molecule indicator probe is much more advantageous. Thioflavin T (ThT) is such a probe and has a distinct fluorescence signature when binding to fibrils [Naiki et al. (1989) Anal. Biochem. 177, 244-249; LeVine (1999) Methods. Enzymol. […], 274-284].
Procedure: Thioflavin T was added to the supernatant samples from Example 5 (pH 4.0 and 6.5) using an aqueous ThT stock solution to a final concentration of about 1 μM in the samples. Sample aliquots of 150 μL were placed in a 96 well microtiter plate (Packard OptiPlate™-96, white polystyrene). Usually, two to three replicas of each sample were applied to the plate. The plate was sealed and placed in a fluorescence plate reader (Fluoroskan Ascent FL) and incubated at 37° C. with orbital shaking (960 rpm; 1 mm amplitude). Fluorescence measurements were performed every 20 minutes using excitation through a 444 nm filter and measurement of emission through a 485 nm filter. Between each measurement, the plate was shaken and heated as described above and the assay was terminated after 45 hours. Fluorescence measurements for each microtiter plate well were plotted against time and the lag-time (time until an increase in ThT fluorescence was observed) was estimated.
To assess loss of dissolved peptide following 45h incubation, peptide recovery was measured as the ratio between total peak area after incubation vs. before incubation using the RP-UPLC method described below.
Measurement of LagTime and Peptide recovery % using RP-UPLC: RP-UPLC was conducted using an Acquity UPLC BEH C18 1.7 μm (2.1×30 mm) Waters column (Eluent A: 0.1% v/v % TFA in water; Eluent B: 0.1% v/v TFA in acetonitrile/water 4:1) with gradient elution (0 min: 95% A; 2 min: 20% A; 2.3 min: 20% A; 2.4 min: 95% A; 9 min: 95% A) in a flow rate of 0.9 mL/min and a column temperature of 30° C. UV-detection at 215 nm was used to assess the total peptide area.
Samples at pH 4.0 were prepared as described in Example 5 and subjected to the ThT assay as described above.
Samples at pH 6.5 were prepared as described in Example 5 and subjected to the ThT assay as described above.

Setting [3] is: 8 mM sodium phosphate, 23 mg/mL glycerol, pH 6.5, room temperature, read-out: Solubility at pH 6.5.

Take `CC[C@H](C)[C@@H]1NC(=O)[C@H](CCCNC(=N)N)NC(=O)[C@H](CC(=O)O)NC(=O)[C@H](CC(C)C)NC(=O)[C@@H]2CCCN2C(=O)[C@H](CC(C)C)NC(=O)CNC(=O)[C@H](Cc2ccccc2)NC(=O)[C@@H](NC(=O)CNC(=O)[C@H](CCC(N)=O)NC(=O)[C@H](CO)NC(=O)[C@H](CC(C)C)NC(=O)CNC(=O)[C@H](CO)NC(=O)[C@H](CCCCN)NC(=O)[C@H](CCC(N)=O)NC(=O)[C@H](C)NC(=O)CNC(=O)[C@H](Cc2c[nH]cn2)NC(=O)[C@H](Cc2ccc(O)cc2)NC(=O)[C@H](CCCCN)NC(=O)[C@H](CCCNC(=N)N)NC(=O)[C@H](C)NC(=O)COCCOCCNC(=O)COCCOCCNC(=O)CC[C@H](NC(=O)CC[C@H](NC(=O)CCCCCCCCCCCCCCCCc2nnn[nH]2)C(=O)O)C(=O)O)CSSC[C@@H](C(=O)O)NC(=O)CNC(=O)[C@H](CC(C)C)NC(=O)CNC(=O)[C@H](CO)NC(=O)[C@H](CC(C)C)NC(=O)[C@H](CO)NC(=O)CNC1=O` [compound 1426] ({X1-γGlu-γGlu-AEEA-AEEA}-ARKYHGAQKSGLSQGCFGLPLDRIGSLSGLGC-OH; disulfide 16-32): the solubility in series [1] (5 mM sodium acetate, 250 mM glycerol, pH 4.0, room temperature, read-out: Solubility at pH 4.0) is 11.2 mM (≈ 46.6 mg/mL). Also, the “LagTime (h) at pH 4.0” value in series [2] (ThT, 37° C., shaking) was determined as 0.33 h.
Regarding `CC[C@H](C)[C@@H]1NC(=O)[C@H](CCCNC(=N)N)NC(=O)[C@H](CC(=O)O)NC(=O)[C@H](CC(C)C)NC(=O)[C@@H]2CCCN2C(=O)[C@H](CC(C)C)NC(=O)CNC(=O)[C@H](Cc2ccccc2)NC(=O)[C@@H](NC(=O)CNC(=O)[C@H](CO)NC(=O)[C@H](CO)NC(=O)[C@@H](NC(=O)CNC(=O)[C@@H](NC(=O)[C@H](CCCCN)NC(=O)[C@H](CCC(N)=O)NC(=O)[C@H](C)NC(=O)CNC(=O)[C@H](Cc2c[nH]cn2)NC(=O)[C@H](Cc2ccc(O)cc2)NC(=O)COCCOCCNC(=O)COCCOCCNC(=O)CC[C@H](NC(=O)CCCCCCCCCCCCCCCCC(=O)O)C(=O)O)[C@@H](C)O)C(C)C)CSSC[C@@H](C(=O)O)NC(=O)CNC(=O)[C@H](CC(C)C)NC(=O)CNC(=O)[C@H](CO)NC(=O)[C@H](CC(C)C)NC(=O)[C@H](CO)NC(=O)CNC1=O` [compound 1303] ({C18 diacid-γGlu-AEEA-AEEA}-YHGAQKTGVSSGCFGLPLDRIGSLSGLGC-OH; disulfide 13-29), in series [1] (setting [3]), the solubility worked out at 4.84 mM (≈ 17.4 mg/mL). Also, the “LagTime (h) at pH 6.5” value in series [2] came out at 5 h.
With `CC[C@H](C)[C@@H]1NC(=O)[C@H](CCCNC(=N)N)NC(=O)[C@H](CC(=O)O)NC(=O)[C@H](CC(C)C)NC(=O)[C@@H]2CCCN2C(=O)[C@H](CC(C)C)NC(=O)CNC(=O)[C@H](Cc2ccccc2)NC(=O)[C@@H](NC(=O)CNC(=O)[C@H](CCC(N)=O)NC(=O)[C@H](CO)NC(=O)[C@H](CC(C)C)NC(=O)CNC(=O)[C@H](CCCCN)NC(=O)[C@H](CCCCN)NC(=O)[C@H](CCC(N)=O)NC(=O)[C@H](C)NC(=O)CNC(=O)[C@@H]2CCCN2C(=O)[C@H](C)NC(=O)[C@H](CCC(N)=O)NC(=O)CNC(=O)COCCOCCNC(=O)COCCOCCNC(=O)CC[C@H](NC(=O)CCCCCCCCCCCCCCCCC(=O)O)C(=O)O)CSSC[C@@H](C(=O)O)NC(=O)CNC(=O)[C@H](CC(C)C)NC(=O)CNC(=O)[C@H](CO)NC(=O)[C@H](CC(C)C)NC(=O)[C@H](CO)NC(=O)CNC1=O` [compound 1484] ({C18 diacid-γGlu-AEEA-AEEA}-GQAPGAQKKGLSQGCFGLPLDRIGSLSGLGC-OH; disulfide 15-31; C-terminus assumed), in series [1] (setting [3]), the solubility worked out at 2.33 mM (≈ 8.7 mg/mL). Moreover, the “LagTime (h) at pH 6.5” value in series [2] is given as 4 h.

Broadly, the solubility is the dissolved amount per volume that the medium holds.
